Patent US7183459B2, “Dwf7 mutants” (The Arizona Board of Regents on Behalf of the University of …, priority 2000, dated 2007)
Read-outs that look alike come from different tables or passages of the source.

Legend:
[1] = test system: Δ^7 sterol C-5 desaturase; conditions: enzyme prepared from maize microsomes; cited from earlier work
[2] = test system: Wassilewskija-2 (Ws-2) wild type hypocotyls
Protocol: (§3) Biochemical complementation of dwf7-1 plants with different concentrations of brassinolide (BL) was performed in liquid media. BL-supplemented (control, 10^−9, 10^−8, and 10^−7 M) sterile liquid media (1.5 mL) was dispensed into wells of a 24-well plate (Corning Co., Corning, N.Y.). Three seedlings, germinated on agar-solidified media, were transferred into each well. After a week of growth with continuous shaking (230 rpm), the seedlings were lightly stained with toluidine blue, and hypocotyls and roots were measured to the nearest millimeter.

dwf7-1 plants [3] = test: Feeding of BR biosynthetic intermediates to shoot tips of 3-week-old dwf7-1 plants; type: in vivo, Arabidopsis thaliana; conditions: for elongation of dwf7-1 pedicels in response to BRs: FIG. 4 legend, versus water, n>15
Protocol: (§1) Feeding experiments using biosynthetic intermediates were performed with 3-week-old mutant plants. The intermediates tested were diluted to the desired concentration with water containing 0.01% Tween 20. Two microliters of each brassinosteroid (BR) solution was applied daily to the shoot tips of plants by using a micro pipettman. After 1 week of treatment, total growth of inflorescence and pedicels was measured to the nearest millimeter (n=15).
To pinpoint the defective step in the BR biosynthetic pathway, dwf7-1 mutants were treated with BR biosynthetic intermediates. Due to undetectable bioactivity of some early intermediates (CR to 6-oxocampestanol) in bioassays (Fujioka et al. 1995; Choe et al. (1998) Plant Cell 10:231–243), these were not used. Instead, three biologically active compounds were chosen, 22-OHCR, 6-deoxoCT, and BL, for these feeding tests (see FIG. 1). Because the 22α-hydroxylation reaction is reported to be mediated by DWF4 (Choe et al. (1998) Plant Cell 10:231–243), biochemical complementation of dwf mutants other than dwf4 by 22-OHCR places the defective step upstream of CR.
(§2) Similarly, 3-week-old inflorescences of dwf7-2 were tested with 22-OHCR, 6-deoxoCT, teasterone, and BL.

dwf7-2 = test: Feeding of BR biosynthetic intermediates to dwf7-2 inflorescences; type: in vivo, Arabidopsis thaliana; conditions: for elongation of pedicels and internodes of dwf7-2: 3-week-old inflorescences of dwf7-2; for biochemical complementation of the dwf7-2 allele: in vivo
Protocol: as §1
A second allele of dwf7 was identified among 43 dwarf mutants isolated by screening >50,000 M2 seeds of an EMS mutant population.
as §2

[4] = test system: wild-type Arabidopsis seedlings; test: Effects of compactin and MVA on growth of seedlings in liquid media; type: in vivo
wild-type plants = test: GA3 spray on wild-type plants; type: in vivo, Arabidopsis thaliana; conditions: 0.1 mM GA3 sprayed
From the text: The overall morphology of plants is dependent on three factors: cell size, shape, and number (Cosgrove (1997) Plant Cell 9:1031–1041). Various signals modulate these factors. Environmental signals, such as water, temperature, and light, are transduced to invoke internal hormone signals, including auxins, gibberellins, and BRs. These signals then trigger the cell elongation process, including but not limited to cell wall loosening by xyloglucan endotransglycosylases and expansins. Thus, a block in any of the signal transduction cascades from the environmental signals to the cell elongation process could result in dwarfism. Mutants resistant to or deficient in classic hormones, such as auxin (e.g., auxin resistant2 [axr2]; Timpte (1992) Genetics 138:1239–1249) and gibberellin ([ga1 to ga5 and gai]; Koornneef and van der Veen (1980) Theor. Appl. Genet. 58:257-263; Koornneef et al. (1985) Physiol. Plant. 65:33–39), often result in dwarfism. Thus, we first tested whether dwf7 is either rescued by or resistant to exogenous application of these hormones. […] The reduction of hypocotyl length in dwf7-1 was rescued by the application of BL (FIG. 3). Both wild-type and dwf7-1 plants responded to BL, but dwf7-1 plants were hypersensitive. The length of dwf7-1 hypocotyls was increased 160% in response to 1 nM BL as compared with the untreated control, whereas the wild-type responded marginally (5%).

dwf7-1 plants [5] = test: GA3 spray on 3-week-old dwf7-1 plants; type: in vivo, Arabidopsis thaliana; conditions: 0.1 mM GA3 sprayed

Protocol for dwf7-1 hypocotyls: as §3

For `[C-]#[O+]` [carbon monoxide], the effect on enzyme [1] is listed as “insensitive”.
With `CC(C)[C@H](C)[C@@H](O)[C@H](O)[C@@H](C)[C@H]1CC[C@H]2[C@@H]3COC(=O)[C@H]4C[C@H](O)[C@H](O)C[C@]4(C)[C@H]3CC[C@]12C` [BL, brassinolide] the “elongation of dwf7-1 hypocotyls (increase)” value (dwf7-1 hypocotyls; 1 nM BL, BL-supplemented liquid media, light-grown, compared with untreated control) was 160%, the “rescue of dwf7-1 hypocotyls to wild-type length” value (dwf7-1 hypocotyls; 10 nM (10^-8 M) BL) was “completely rescued” and the “rescue of dwf7-1 hypocotyls to wild-type length” value (dwf7-1 hypocotyls; 100 nM BL) was “completely rescued”. The “response of dwf7-1 hypocotyls to BL” value (dwf7-1 hypocotyls; 10^-9 M BL, light-grown (FIG. 3)) was “responds”, the wild-type hypocotyl increase ([2]; 1 nM BL, BL-supplemented liquid media, light-grown) was 5% and the “BL concentration giving the strongest response of the wild type” value ([2]; hypocotyl length, liquid media (FIG. 3)) was 100 nM. For the same compound, the “elongation of dwf7-1 pedicels in response to BRs” value (“elongation of dwf7-1 pedicels” for short) (dwf7-1 plants [3]) was “greater than twofold”, the “length of cells in dwf7-1 stem after BL treatment” value (dwf7-1 plants [3]; daily application of 10^-7 M BL for 1 week) was “converted to the length of the wild type” and the “growth of treated dwf7-1 pedicels relative to wild-type” value (dwf7-1 plants [3]; in vivo) was “greater than or equal to that of the wild-type”. The “elongation of pedicels and internodes of dwf7-2” value (“elongation … of dwf7-2” below) (dwf7-2) was “significant elongation”.
With `CC[C@H](C)C(=O)O[C@H]1CCC=C2C=C[C@H](C)[C@H](CC[C@@H]3C[C@@H](O)CC(=O)O3)[C@H]21` [compactin, mevastatin] the growth of seedlings ([4]; 10 μM compactin, liquid media) was “almost completely inhibited”.
In the case of `C[C@@](O)(CCO)CC(=O)O` [MVA, mevalonic acid], the “reversal of compactin growth inhibition” value ([4]; 4.5 mM MVA applied simultaneously with 10 μM compactin) is reported as “restored to the level of controls”.
For `CC(C)[C@H](C)C[C@H](O)[C@@H](C)[C@H]1CC[C@H]2[C@@H]3CC(=O)[C@H]4C[C@@H](O)CC[C@]4(C)[C@H]3CC[C@]12C` [cathasterone], the “biochemical complementation of the dwf7-2 allele” value (dwf7-2) was “biochemically complemented”.
With `C=C1C[C@]23C[C@@]1(O)CC[C@H]2[C@@]12C=C[C@H](O)[C@@](C)(C(=O)O1)[C@H]2[C@@H]3C(=O)O` [GA3] the “increase of inflorescence height” value (wild-type plants) was under 10%, the “rescue of the dwf7-1 phenotype” value (dwf7-1 plants [5]) was “did not rescue” and the “increase of inflorescence height” value (dwf7-1 plants [5]; 3-week-old dwf7-1 plants) was under 10%.
In the case of `CC(C)[C@H](C)C[C@H](O)[C@@H](C)[C@H]1CC[C@H]2[C@@H]3CC[C@H]4C[C@@H](O)CC[C@]4(C)[C@H]3CC[C@]12C` [6-deoxoCT], the “elongation of dwf7-1 pedicels” value (dwf7-1 plants [3]) is reported as “greater than twofold” and the “elongation … of dwf7-2” value (dwf7-2) is reported as “significant elongation”.
With `CC(C)[C@H](C)[C@@H](O)[C@H](O)[C@@H](C)[C@H]1CC[C@H]2[C@@H]3CC(=O)[C@H]4C[C@@H](O)CC[C@]4(C)[C@H]3CC[C@]12C` [teasterone] the “elongation … of dwf7-2” value (dwf7-2) was “significant elongation”.
For `CC(C)[C@H](C)C[C@H](O)[C@@H](C)[C@H]1CC[C@H]2[C@@H]3CC=C4C[C@@H](O)CC[C@]4(C)[C@H]3CC[C@]12C` [22-OHCR, 22 α-hydroxycampesterol], the “elongation of dwf7-1 pedicels” value (dwf7-1 plants [3]) was “greater than twofold”, the “growth of treated dwf7-1 pedicels relative to wild-type” value (dwf7-1 plants [3]; in vivo) was “greater than or equal to that of the wild-type” and the “rescue of dwf7-1 by exogenous application” value (dwf7-1 plants [3]; in vivo) was “Rescue”. The “elongation … of dwf7-2” value (dwf7-2) was “significant elongation” and the “biochemical complementation of the dwf7-2 allele” value (dwf7-2) was “biochemically complemented”.
